Primed or numbered codes have the meaning given here. DTPA′ = diethylenetriaminepentaacetic acid
What was measured:
hMN-14IgG-(734scFv)2 = assay: Stoichiometry of targetable complexes, In-111 IMP 246 mixed with bsAb, size exclusion HPLC; assay type: binding; details: 1:10 (IMP 246:bsAb) mole ratio; peak at 7.5 min
Protocol: (§1) This Example describes experiments designed to determine the stoichiometry of different species of targetable complexes that arise when the targetable divalent construct IMP 246 is mixed with bsAbs hMN-14IgG^(I253A)-(734scFv)2, and hMN-14IgG-(734scFv)2.
(§2) The peptide IMP 246 was dissolved in 100 mL of a solution which contained 0.418 g citric acid and 10.06 g of HPCD buffered at pH 4.3. The solution was filter sterilized through a 0.22 ? m Millex GV filters in 1 mL aliquots into vials that were immediately frozen and lyophilized.
(§3) The IMP 246 was labeled with In-111 as follows. The In-111 was diluted with 0.5 mL water and added to a lyophilized IMP 246 kit. The solution was allowed to incubate at room temperature for 10 min. A 1.5 mL aliquot of a solution containing […] in 0.5 M NaOAc buffer pH 7.17 was then added to the kit.
(§4) The In-111-labelled IMP 246 was mixed with bsAb in a 1:10 (IMP 246:bsAb) mole ratio and then examined by size exclusion HPLC. When mixed with the mutant bsAb, i.e., hMN-14IgG^(I253A)-(734scFv)2, about 90% of the In-111 label was found at a clean sharp peak at 8.5 min (FIG. 8A). When mixed with hMN-14IgG-(734scFv)2, the peak was somewhat broader, comprised about 83% of the In-111 label and was found at 7.5 min (FIG. 8B). In contrast, the antibody:peptide complexes formed when IMP 192 was used were found at 9.5 min (FIG. 7).

[1] = system: hMN-14IgG^(I253A)-(734scFv)2; assay: as above; assay type: binding; details: 1:10 (IMP 246:bsAb) mole ratio; peak at 8.5 min
Protocol: as §1, §2, §3, §4

[2] = Stability of IMP 246 and its complex in fresh mouse serum, size exclusion HPLC; assay type: in vitro ADME; details: 37° C.
Protocol: […] A 10 μL aliquot was removed and mixed with 5 μL of 3.2 mg/mL 14IgG^(I253A)-(734scFv)2 and diluted with 40 μL water. A 10 μL aliquot of the diluted mixture was then examined by size exclusion HPLC.
A 4 μL aliquot of the labeled peptide solution was mixed with 10 μL of the 3.2 mg/mL hMN-14 IgG^(I253A)-(734scFv)2 and diluted in 400 μL of fresh mouse serum. The serum sample was incubated at 37° C. for 16 hr and then analyzed by size exclusion HPLC.
Three broad peaks comprised about 20%, 41% and 37% of the area under the curve of the HPLC tracing.

Raji cells = assay: Apoptosis of Raji cells after cross-linking of bound hA20IgG-(734scFv)2; assay type: cell-based; details: Raji cells incubated with hA20IgG-(734scFv)2, 3 days, 37 degrees C.
Protocol: Raji cells in culture are incubated with hA20IgG-(734scFv)2. To one set of wells is added IMP-246 to cross-link molecules of hA20IgG-(734scFv)2 bound to CD20 on the surface of the Raji cells. A second set of wells to which IMP-246 is not added serve as controls, and both sets of wells incubated at 37 degrees C.
An average of 5 molecules IMP-222 are conjugated to human serum albumin (hAlb-222). The experiment described in the paragraph above is repeated, but hAb-222 is used to cross-link molecules of hA20IgG-(734scFv)2 bound to CD20 on the surface of the Raji cells, in place of IMP-246.

In the case of “[Ac-Cys-Lys(DTPA)-Tyr-Lys(DTPA)-NH2]2 (Ac-CK(DTPA′)YK(DTPA′)-NH2; also: disulfide-linked homodimer of two chains, disulfide at 1, other end not in the chain) [IMP 246]”, the “In-111 label found in complex peak” value (hMN-14IgG-(734scFv)2) is reported as “about 83%”, the “In-111 label found in complex peak” value [1] is reported as “about 90%” and the “area under the curve of HPLC tracing in distinct peak at predicted position” value ([2]; in presence of bi-specific antibody, mouse serum, 16 hr) is reported as no less than 90%. The “stability in mouse serum” value ([2]; peptide alone, 16 hours) was “unstable” and the apoptosis (Raji cells) was “extensive apoptosis”.

— patent publication US7951921B2, “Multivalent carriers of bi-specific antibodies” (Immunomedics, Inc., priority 2003, dated 2011)
